Test system: switchgrass "Alamo"
Assay: Sugar content of switchgrass after isoxaben (Example 6)
Format: in vivo
Details: 1120 g ai/ha + 1% v/v crop oil concentrate POST; harvested 8 weeks after application; % of fresh weight basis
Description: Switchgrass was harvested 8 weeks after application and three replicates were analyzed compared with an untreated check. Sugar content was assessed on a percentage of the fresh weight and values were converted to a percentage of values derived from the untreated control. Isoxaben increased fructose by 44%, glucose by 33%, and total sugars by 38% in comparison to the untreated check. Switchgrass is currently under evaluations as a biofuels crop whereby enhanced sugar output per acre is desired.

**Q.** With CCC(C)(CC)c1cc(NC(=O)c2c(OC)cccc2OC)on1 [Isoxaben, isoxaben] as the compound, how does the “fructose increase in comparison to the untreated check” value read?
**A.** 44%

**Q.** What about the “glucose increase in comparison to the untreated check” value of the same compound?
**A.** 33%

**Q.** What about the “total sugars increase in comparison to the untreated check” value of the same compound?
**A.** 38%

Reference: patent US20110053773A1, “METHODS OF IMPROVING NUTRITIONAL VALUE OF PLANTS” (UNIVERSITY OF TENNESSEE RESEARCH FOUNDATION, priority 2009, published 2011)
